Data published in article PMC5433008 (BMC Neuroscience, 2017).
Where a SMILES comes first, the peptide text is derived from it.

Key:
[1] = test system: GluN1a–GluN2B; format: cell-based
[2] = test system: GluN1a–GluN2A; format: cell-based
[3] = test system: recombinant NMDAr comprised of either GluN1a–GluN2A or GluN1a–GluN2B subunits; format: cell-based
[4] = test system: NMDA-evoked currents in cultured rat embryonic hippocampal neurons (NMDAr); settings: for IC50: pH 7.4

| Compound | block of NMDA-evoked currents, GluN1a–GluN2B [1] [%] | block of NMDA-evoked currents, GluN1a–GluN2A [2] [%] | difference between control-NMDA and wash-NMDA (reversibility) [3] | off rate (from short-lived current increase on simultaneous removal of NMDA + peptide) [3] | reversibility, recombinant NMDAr versus neuronal NMDAr [3] | dose dependence of inhibition [4] | off rate (from transient current increase on simultaneous removal of NMDA + peptide) [4] | reversibility of block [4] | use-dependence of block [4] | IC50 [4] [µM] |
| --- | --- | --- | --- | --- | --- | --- | --- | --- | --- | --- |
| CC[C@H](C)[C@H](NC(=O)[C@H](CC(C)C)NC(=O)[C@H](CC(=O)O)NC(=O)[C@H](CCC(N)=O)NC(=O)[C@H](CC(N)=O)NC(=O)[C@H](CC(=O)O)NC(=O)[C@H](CCC(N)=O)NC(=O)[C@H](CC(C)C)NC(=O)[C@H](CC(=O)O)NC(=O)[C@H](CC(=O)O)NC(=O)[C@H](CCC(=O)O)NC(=O)CN)C(=O)N[C@@H](CCCNC(=N)N)C(=O)N[C@@H](CC(=O)O)C(=O)N[C@@H](CCCCN)C(=O)N[C@@H](CO)C(=O)N[C@@H](CC(N)=O)C(=O)O [EAR16] (H-GEDDLQDNQDLIRDKSN-OH) | 84 | 50 | No significant difference | fast enough that would allow binding of NMDA early on during washout | faster from the recombinant NMDAr than from NMDAr expressed in neuronal cells | dose-dependent | fast enough that would allow binding of NMDA early on during washout | highly reversible | no clear use-dependence | 241 |
| CC[C@H](C)[C@H](NC(=O)[C@H](CC(C)C)NC(=O)[C@H](CC(=O)O)NC(=O)[C@H](CCC(N)=O)NC(=O)[C@H](C)NC(=O)[C@H](CC(=O)O)NC(=O)[C@H](CCC(N)=O)NC(=O)[C@H](Cc1ccc(O)cc1)NC(=O)[C@H](CC(=O)O)NC(=O)[C@H](CC(=O)O)NC(=O)[C@H](CCC(=O)O)NC(=O)CN)C(=O)N[C@@H](CCCNC(=N)N)C(=O)N[C@@H](CC(=O)O)C(=O)N[C@@H](CCCCN)C(=O)N[C@@H](CO)C(=O)N[C@@H](CC(N)=O)C(=O)O [EAR18] (H-GEDDYQDAQDLIRDKSN-OH) |  |  |  |  |  |  |  |  |  | 176 |
